{"source": "patent US20110237832A1", "about": "“SYNTHESIS OF HDAC INHIBITORS: TRICHOSTATIN A AND ANALOGUES” (University of Notre Dame du Lac, priority 2010, published 2011)", "origin": "cited, not measured here", "system": "HDACs", "conditions": "read-out: inhibits the activity of HDACs, IC50 value; in human T cells", "data": [{"compound": "CC(/C=C/C(=O)NO)=C\\[C@@H](C)C(=O)c1ccc(N(C)C)cc1", "note": "[TSA, (+)-Trichostatin A]", "values": [{"measurement": "IC50", "value": 70, "unit": "nM"}]}]}
